# Laboratory results taken from patent publication US10857128B2, “Methods and compositions for treating inflammatory diseases” (Helmholtz Zentrum München Deutsches Forschungszentrum für …, priority 2017, dated 2020).
# Key:
# [1] = Oral supplementation of mice with D-tryptophan in drinking water: serum levels and tolerability; type: in vivo, Balb/c mice; conditions: 14 days
# Protocol: Enantiomeric separation of D-Tryptophan in murine sera. The investigator (C.M.) was blinded to the murine intervention groups. Due to the abundance of interfering proteins a protein precipitation was done. For this purpose the sera were thawed on ice and 20 μL of each sample were vigorously shaken with 80 μL 4° C. methanol (Chromasolve, Fluka, St. Louis, USA) and centrifuged (15,000×g at 4° C. for 15 min). The supernatants were taken, evaporated and resolved in water before injection. The derivation was performed as described for bacterial supernatants with some modifications as recently published (Müller et al., J Chromatogr A. 2014 Jan. 10; 1324:109-14). For quantification human serum was spiked with different concentrations (0.005-0.15 μg/mL) of D-Tryptophan and randomly analyzed.
# Animals and oral supplementation with D-tryptophan. […]
# [2] = test system: CCL17 secretion of human Hodgkin lymphoma KM-H2 cells; experiment: CCL17 secretion bioassay with KM-H2 cells (ELISA); type: cell-based; conditions: different concentrations, 24 h
# Protocol: Human T cell line KM-H2. The human Hodgkin lymphoma T cell line (KM-H2) was purchased from the Leibniz Institute DSMZ-German Collection of Microorganisms and Cell Cultures, Braunschweig, Germany. 3-5×10^6 KM-H2 cells were grown in 4 mL RPMI 1640 per well in 6-well-plates (Nunc, Wiesbaden, Germany). All eukaryotic cells were cultured in 5% CO2 at 37° C. (HeraCell 240 and Heraeus BDD 6220, Thermo Fisher Scientific, Waltham, USA). Viability of cells after treatment with bacterial supernatants was assessed by trypan blue, 7-AAD and CellTiter-Blue® staining. (FIG. 9A-C)
# Quantification of CCL17 and cytokines in eukaryotic cell culture supernatants. CCL17 was quantified in cell culture supernatants of KM-H2 cells using ELISA reagent Quantikine CCL17/TARC, (R&D Systems, Minneapolis, USA) according to the manufacturer's instructions (ELISA reader MRXII, Thermo Fisher Scientifc, Waltham, USA).
# Bioassays for screening for immune modulatory activity in probiotic supernatants. Two biological assays based on down-modulation of costimulatory molecules on human DCs, and of CCL17-secretion by a human Hodgkin lymphoma T cell line (KM-H2) were set up. […]
# Similarly, 200 μL supernatants were added to 3-5×10^6 KM-H2 cells for 24 h. Supernatants were collected from KM-H2 by centrifugation and stored at −80° C. until quantification of CCL17. […]
smiles,measurement,setting,value
N[C@H](Cc1c[nH]c2ccccc12)C(=O)O [D-tryptophan],changes in behavior or body weight,"[1]; 1.8 or 18 mg/dL in drinking water, compared to controls",No changes
same,D-tryptophan serum levels,[1]; oral 0.9 mg/day in drinking water,increased D-tryptophan serum levels significantly
same,immune activity of synthetic tryptophan isomers in the CCL17 bioassay,[2],dose dependent immune activity
